In experiment [1] the test system is Zelllinien des kleinzelligen Bronchialkarzinoms H69, SW2, OH1, OH3 und H82. The experiment in a line: XTT cell proliferation test, single agents Indometacin or IBMX. Format: cell-based. The text has this:
Vor Beginn der Versuche zur Zellproliferation wurde zunächst für jede Zelllinie eine Eichkurve erstellt, um die optimale Zellzahl pro ml für die nachfolgenden Versuchsreihen zu ermitteln. Dafür wurde das Zellproliferationskit XTT (Roche, Penzberg, Deutschland) verwendet. Hierbei wird durch ein in allen vitalen Zellen vorhandenes Enzym das gelbe Tetrazoliumsalz XTT zum orangen Salz Formazan reduziert. Somit stellt die Extinktion der jeweiligen Zellkulturprobe ein Maß für die Anzahl der vitalen Zellen dar.
Die Zelllinien wurden in sieben verschiedenen Konzentrationen zwischen 10^4 und 10^7 Zellen pro ml in Mikrotiterplatten mit 96 Vertiefungen ausgesät. In jede Vertiefung wurde zunächst 10 µl PBS (pH 7,4) vorgelegt und dann 90 µl der Zellsuspension mit der jeweiligen Zellzahl pro ml zugegeben. Für jede Zelllinie wurden sechs parallele Ansätze hergestellt. Nach 72 Stunden Inkubation unter Standardbedingungen wurden 50 µl XTT Labeling Mixture pro Vertiefung zugegeben. Nach sechs Stunden wurde die Absorption bei 450 nm in einem Dynatech MR 3.13 Mikroelisa Reader gemessen und anhand der erzielten Werte Eichkurven erstellt. Figur 1 zeigt die Eichkurven für die Zelllinien H69, SW2, OH1, OH3 und H82OH1-Zellen. Die Zellzahlen wurden so gewählt, dass sich die Zellen bei ungehindertem Wachstum in der exponentiellen Wachstumsphase befanden. So ergab sich eine Konzentration von 160.000 Zellen pro ml für die Zelllinien OH3 und SW2, 300.000 Zellen pro ml für OH1, 500.000 Zellen pro ml für H69 und 750.000 Zellen pro ml für H82.
Dieser Versuch wurde mit allen oben genannten Zelllinien durchgeführt. Dafür wurden zunächst Lösungen der einzelnen Wirkstoffe in die Vertiefungen einer 96-Loch-Mikrotiterplatte gegeben. Die in Kulturmedium vorliegenden Zellsuspensionen wurden zugegeben, sodass sich ein Gesamtvolumen von 100 µl pro Vertiefung ergab.
Die Zellzahl für die jeweiligen Zelllinien betrug für SW2 205.700 Zellen pro ml, für H82 964.000 Zellen pro ml, für OH1 385.700 Zellen pro ml, für OH3 205.700 Zellen pro ml und für H69 643.000 Zellen pro ml. Da zum Lösen von Indometacin 5% Ethanol und zum Lösen von IBMX 1 % Ethanol verwendet wurde, bestand die Kontrolle aus 70 µl Zellsuspension mit der jeweiligen Zellzahl pro ml, 20 µl Medium und 10 µl Alkoholkontrolle mit einer Konzentration von 6% Ethanol. Im Gesamtvolumen von 100 µl ergab sich somit eine Alkoholkonzentration von 0,6%. Der Leerwert bestand aus 100 µl Medium. Jede gewählte Kombination der Wirkstoffe in den unterschiedlichen Konzentrationen wurde pro Versuch sechsfach getestet.
(In general: Tetrazolium assays rely on reduction of a dye to a coloured formazan, in cell work by metabolically active cells.)

The subject of the next experiment is H69 Zellen. The experiment in a line: XTT cell proliferation test, Meloxicam, Sildenafil and their combination. The format is cell-based. To be noted: Meloxicam alone, compared with Indomethacin. On the procedure: Die zu untersuchenden Zelllinien wurden mit den in den Figuren angegeben Konzentrationen von Indometacin und IBMX behandelt. Die Proliferationsversuche wurden in 96-Loch-Mikrotiterplatten durchgeführt; das Gesamtvolumen pro Vertiefung betrug 100 µl. 80 µl Zellsuspension wurde pro Vertiefung verwendet. Die Zellzahl der jeweils verwendeten Suspensionen betrug für SW2 180.000 Zellen pro ml, für OH1 338.000 Zellen pro ml, für OH3 180.000 Zellen pro ml und für H69 563.000 Zellen pro ml. Da zum Lösen sowohl von Indometacin 20% Ethanol als auch von IBMX 20% Ethanol verwendet wurde, bestand die Kontrolle aus 80 µl Zellsuspension mit der jeweiligen Zellzahl pro ml und 20 µl Alkoholkontrolle mit einer Konzentration von 20% Ethanol. Im Gesamtvolumen von 100 µl ergab sich so eine Alkoholkonzentration von 4%. Eine weitere Kontrolle bestand aus 80 µl Zellsuspension mit der jeweiligen Zellzahl pro ml und 20 µl Kulturmedium, um den wachstumshemmenden Effekt vom Ethanol erkennen zu können. Der Leerwert bestand aus 100 µl Kulturmedium.
H69 Zellen wurden wie in Beispiel 5 beschrieben mit Meloxicam und Sildefanil behandelt. […] Die Ergebnisse sind in Figur 10 dargestellt. Auch hier lässt sich eine signifikant synergistische Wirkung auf die Proliferation der H69-Zellen beobachten.

Setting [2] is: 72 h, read-out: Inhibierung auf einen Wert von % der Alkoholkontrolle.

With `CC(C)Cn1c(=O)n(C)c(=O)c2[nH]cnc21` [IBMX, 1-Methyl-3-(2-methylpropyl)-7H-purine-2,6-dione], in experiment [1] (72 h, 1,5 mM IBMX, cell line not stated, read-out: Hemmung, % der Alkoholkontrolle), the activity at 1500 µM was determined as 51%. For the same compound, in experiment [1] (72 h, 1,25 mM IBMX, cell line not stated, read-out: Hemmung, % der Alkoholkontrolle), the activity at 1250 µM was found to be 52%. In addition, the activity at 2000 µM in experiment [1] (72 h, 2,0 mM IBMX, cell line not stated, read-out: Hemmung, % der Alkoholkontrolle) came to 45%. In experiment [1] (72 h, from 0,75 mM IBMX, cell line not stated, data not shown, read-out: Hemmung, % der Alkoholkontrolle), the activity at 750 µM is about 80%. Besides, the “Wirkung auf die verschiedenen Zellen des kleinzelligen Bronchialkarzinoms” value in experiment [1] (single agent) was “antiproliferative Wirkung”.

For the compound `COc1ccc2c(c1)c(CC(=O)O)c(C)n2C(=O)c1ccc(Cl)cc1` [Indometacin, 2-[1-(4-Chlorbenzoyl)-5-methoxy-2-methyl-1H-indol-3-yl]essigsäure], in experiment [1] (setting [2]), the activity at 200 µM is about 60% and the activity at 300 µM was about 60%.

Turning to `Cc1cnc(NC(=O)C2=C(O)c3ccccc3S(=O)(=O)N2C)s1` [Meloxicam, 4-Hydroxy-2-methyl-N-(5-methyl-2-thiazolyl)-2H-1,2-benzothiazin-3-carboxamid-1,1-dioxid], the “Wirkung bei H69-Zellen” value in the experiment with H69 Zellen was “wirkt bei H69-Zellen in den gleichen Dosierungen wie Indomethacin”.

The record behind these values is EP2384752A1, “Combination preparation comprising a phosphodiesterase inhibitor and a COX inhibitor for treating cancer” (Universitätsklinikum Hamburg-Eppendorf, priority 2010, dated 2011).
